Biological target: human PCSK9 (Homo sapiens, UniProt Q8NBP7)
Test: PCSK9 ligand binding assay (TR-FRET): interference with binding of human PCSK9 to human LDLR
Conditions: for IC50: Human PCSK9 Alexa Fluor 647 / Human LDLR extracellular domain-Europium Kryptate; for Max % inhibition: efficacy (Amax), 100% = 1 uM unlabeled human PCSK9, 0% = DMSO
Summary of the method: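 Read-out was TR-FRET ratio (665 nm over 615 nm, 330 nm excitation) between Alexa Fluor 647-human PCSK9 (16 nM added) and Europium Kryptate-human LDLR ectodomain (4 nM added). Compound and PCSK9 were mixed 30 min before LDLR, then incubated 2 h. Inhibition was normalised to DMSO and unlabelled-PCSK9 controls, giving IC50 and Amax.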

human PCSK9, sequence (Q8NBP7 153-692): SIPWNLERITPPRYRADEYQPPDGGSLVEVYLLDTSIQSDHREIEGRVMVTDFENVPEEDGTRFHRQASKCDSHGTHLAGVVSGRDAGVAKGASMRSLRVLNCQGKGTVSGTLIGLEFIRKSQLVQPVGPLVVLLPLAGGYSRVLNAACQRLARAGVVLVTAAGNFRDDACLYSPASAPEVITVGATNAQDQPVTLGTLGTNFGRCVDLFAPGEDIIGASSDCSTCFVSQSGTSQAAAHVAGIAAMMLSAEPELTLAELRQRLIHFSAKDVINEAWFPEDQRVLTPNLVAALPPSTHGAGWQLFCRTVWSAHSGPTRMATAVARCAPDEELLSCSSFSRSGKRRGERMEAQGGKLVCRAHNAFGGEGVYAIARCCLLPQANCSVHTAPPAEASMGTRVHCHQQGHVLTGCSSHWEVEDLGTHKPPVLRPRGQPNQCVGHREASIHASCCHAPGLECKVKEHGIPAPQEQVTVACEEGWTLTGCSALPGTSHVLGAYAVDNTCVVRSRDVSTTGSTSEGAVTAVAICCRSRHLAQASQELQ
human PCSK9, sequence (Q8NBP7 31-152 partner limits assumed): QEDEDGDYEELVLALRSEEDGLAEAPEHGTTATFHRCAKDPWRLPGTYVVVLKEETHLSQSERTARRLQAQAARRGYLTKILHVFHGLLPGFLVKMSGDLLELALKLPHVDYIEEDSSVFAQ

| Compound | IC50 | Max % inhibition |
| --- | --- | --- |
| COC[C@@H]1NC(=O)[C@H](C)N(Cc2ccc(Cl)cc2Oc2ccc(-c3cnc(CN(C)C)n3C)nc2)C(=O)C[C@@H](Cc2ccccn2)C(=O)N2CCC[C@@](Cc3ccc(Cl)cc3)(C2)N(C)C1=O [Compound 94, (3R,7S,10S,13R)-6-(4-Chloro-2-((6-(2-((dimethylamino)methyl)-1-methyl-1H-imidazol-5-yl)pyridin-3-yl)oxy)benzyl)-13-(4-chlorobenzyl)-10-(methoxymethyl)-7,12-dimethyl-3-(pyridin-2-ylmethyl)-1,6,9,12-tetraazabicyclo[11.3.1]heptadecane-2,5,8,11-tetraone] | 978 pM | 107.7% |
| COC[C@@H]1NC(=O)[C@H](C)N(Cc2ccc(Cl)cc2Oc2ccc(-c3cnc(CN4CCCC4)n3C)cc2)C(=O)C[C@@H]([C@H]2CC(C)(C)c3ccccc32)C(=O)N(C)C[C@@H](Cc2ccc(Cl)cc2)N(C)C1=O.Cl [Compound 111, (2S, 5S, 8R, 12S)-1-(4-chloro-2-(4-(1-methyl-2-(pyrrolidin-1-ylmethyl)-1H-imidazol-5-yl)phenoxy)benzyl)-8-(4-chlorobenzyl)-12-((R)-3,3-dimethyl-2,3-dihydro-1H-inden-1-yl)-5-(methoxymethyl)-2,7,10-trimethyl-1,4,7,10-tetraazacyclotetradecane-3,6,11,14-tetraone] | 11400 pM | 102.4% |
| COC[C@@H]1NC(=O)[C@H](C)N(Cc2ccc(Cl)cc2Oc2cc(F)c(-c3cnc(CN4CCCC4)n3C)c(F)c2)C(=O)C[C@@H](Cc2ccccc2)C(=O)N(C)C[C@@H](Cc2ccc(Cl)cc2)N(C)C1=O.Cl [Compound 117, (2S, 5S, 8R, 12R)-12-benzyl-1-(4-chloro-2-(3,5-difluoro-4-(1-methyl-2-(pyrrolidin-1-ylmethyl)-1H-imidazol-5-yl)phenoxy)benzyl)-8-(4-chlorobenzyl)-5-(methoxymethyl)-2,7,10-trimethyl-1,4,7,10-tetraazacyclotetradecane-3,6,11,14-tetraone] | 35100 pM | 98.9% |
| C[C@H]1C(=O)N[C@@H](CO)C(=O)N[C@@]2(Cc3ccc(Cl)cc3)CCCN(C2)C(=O)[C@H](Cc2cccnc2)CC(=O)N1Cc1ccc(Cl)cc1Oc1ccc(-c2cnc(CN(C)C)n2C)cc1.Cl [Compound 19, (3R,7S,10S,13R)-6-(4-chloro-2-(4-(2-((dimethylamino)methyl)-1-methyl-1H-imidazol-5-yl)phenoxy)benzyl)-13-(4-chlorobenzyl)-10-(hydroxymethyl)-7-methyl-3-(pyridin-3-ylmethyl)-1,6,9,12-tetraazabicyclo[11.3.1]heptadecane-2,5,8,11-tetraone hydrochloride] | 450 pM | 105.3% |

Continued, values first:

| IC50 | Max % inhibition | Compound |
| --- | --- | --- |
| 260 pM | 113.0% | COC[C@@H]1NC(=O)[C@H](C)N(Cc2c(F)cc(Cl)cc2Oc2ccc(-c3cnc(CNC(C)(C)C)n3C)cc2)C(=O)C[C@@H](CC(F)(F)F)C(=O)N2CCC[C@@](Cc3ccc(Cl)cc3)(C2)N(C)C1=O [Compound 136, (3S,7S,10S,13R)-6-(2-(4-(2-((tert-Butylamino)methyl)-1-methyl-1H-imidazol-5-yl)phenoxy)-4-chloro-6-fluorobenzyl)-13-(4-chlorobenzyl)-10-(methoxymethyl)-7,12-dimethyl-3-(2,2,2-trifluoroethyl)-1,6,9,12-tetraazabicyclo[11.3.1]heptadecane-2,5,8,11-tetraone] |
| 850 pM | 113.1% | COC[C@@H]1NC(=O)[C@H](C)N(Cc2c(F)cc(Cl)cc2Oc2ccc(-c3cnc(CN(C)C(C)(C)C)n3C)cc2)C(=O)C[C@@H](C2CC(F)(F)C2)C(=O)N2CCC[C@@](Cc3ccc(Cl)cc3)(C2)N(C)C1=O [Compound 169, (3S, 7S, 10S, 13R)-6-(2-(4-(2-((tert-butyl(methyl)amino)methyl)-1-methyl-1H-imidazol-5-yl)phenoxy)-4-chloro-6-fluorobenzyl)-13-(4-chlorobenzyl)-3-(3,3-difluorocyclobutyl)-10-(methoxymethyl)-7,12-dimethyl-1,6,9,12-tetraazabicyclo[11.3.1]heptadecane-2,5,8,11-tetraone] |
